# Tested on: Monocotyledonous and dicotyledonous test plants
# Assay: Herbicidal action, application pre-emergence
# Type: in vivo
# Parameters: key: 10=total damage to plant; 0=no damage to plant
# Conditions: spray solution 1000 mg/l, scale 0-10; for Herbicidal action (damage score) AGSTE: Agrostis tenius; for Herbicidal action (damage score) AMARE: Amaranthus retroflexus; for Herbicidal action (damage score) DIGSA: Digitaria sanguinalis; for Herbicidal action (damage score) POATR: Poa trivialis; for Herbicidal action (damage score) SETFA: Setaria faberi; for Herbicidal action (damage score) SETIT: Setaria italica
# Procedure: Monocotyledonous and dicotyledonous test plants were sown in sterilised standard soil in seed trays each having 96 cells. After one day (pre-emergence) or after 8 to 9 days cultivation (post-emergence) under controlled conditions in a climatic chamber (cultivation at 23/17° C., day/night; 13 hours light; 50-60% humidity; after application at 24/19° C., day/night), the plants were treated with an aqueous spray solution of 1000 mg/l of the active ingredient used (incl. 10% DMSO as solvent). The plants were grown on in the climatic chamber until the test was evaluated (10=total damage to plant, 0=no damage to plant) after 9 or 13 days.
SMILES,Herbicidal action (damage score) AGSTE,Herbicidal action (damage score) AMARE,Herbicidal action (damage score) DIGSA,Herbicidal action (damage score) POATR,Herbicidal action (damage score) SETFA,Herbicidal action (damage score) SETIT
Cc1nn(C(F)F)nc1C(F)[S+]([O-])C1=NOC(C)(C)C1 (racemic) [Compound No. 1.21],10,10,10,10,10,
Cn1nc(C(F)(F)F)c(C(F)(F)S(=O)(=O)C2=NOC(C)(C)C2)n1 [1.09],10,10,10,10,,10
CCn1nc(C(F)(F)F)c(C(F)(F)S(=O)(=O)C2=NOC(C)(C)C2)n1 [1.15],10,10,10,10,10,
CC(C)n1nc(C(F)(F)F)c(C(F)(F)S(=O)(=O)C2=NOC(C)(C)C2)n1 [1.17],10,10,9,10,10,
Cc1nn(C(F)F)nc1C(F)(F)S(=O)(=O)C1=NOC(C)(C)C1 [1.20],10,10,10,10,9,
COCCn1nc(C(F)(F)F)c(C(F)(F)S(=O)(=O)C2=NOC(C)(C)C2)n1 [1.23],10,10,10,10,10,
CCc1nn(C)nc1C(F)(F)S(=O)(=O)C1=NOC(C)(C)C1 [1.26],10,10,10,10,10,
CC1(C)CC(S(=O)(=O)C(F)(F)c2nn(C3CCCC3)nc2C(F)(F)F)=NO1 [1.29],10,8,9,6,9,
C=CCn1nc(C(F)(F)F)c(C(F)(F)S(=O)(=O)C2=NOC(C)(C)C2)n1 [1.32],10,10,10,10,10,
Cn1ncc(C(F)(F)S(=O)(=O)C2=NOC(C)(C)C2)n1 [1.35],10,10,9,10,9,
Cn1ncc(C(F)(F)[S+]([O-])C2=NOC(C)(C)C2)n1 (stereo not drawn) [1.36],10,9,10,10,9,
CCn1ncc(C(F)S(=O)(=O)C2=NOC(C)(C)C2)n1 (stereo not drawn) [1.37],10,10,9,10,9,
CCn1ncc(C(F)(F)S(=O)(=O)C2=NOC(C)(C)C2)n1 [1.38],10,10,9,10,9,
CCn1ncc(C(F)(F)[S+]([O-])C2=NOC(C)(C)C2)n1 (stereo not drawn) [1.40],10,10,9,10,9,
Cc1nn(C(C)C)nc1C(F)(F)S(=O)(=O)C1=NOC(C)(C)C1 [1.41],10,10,10,10,9,
COc1nn(C)nc1C(F)(F)S(=O)(=O)C1=NOC(C)(C)C1 [1.43],10,10,10,0,10,
COc1nn(C)nc1C(F)(F)[S+]([O-])C1=NOC(C)(C)C1 (stereo not drawn) [1.44],10,10,10,0,9,
Cn1nc(Br)c(C(F)S(=O)(=O)C2=NOC(C)(C)C2)n1 (stereo not drawn) [1.45],10,9,10,10,9,
Cn1nc(Br)c(C(F)(F)S(=O)(=O)C2=NOC(C)(C)C2)n1 [1.46],10,10,10,10,9,
Cn1nc(Br)c(C(F)(F)[S+]([O-])C2=NOC(C)(C)C2)n1 (stereo not drawn) [1.47],10,10,9,10,9,
CC1(C)CC(S(=O)(=O)C(F)(F)c2nn(CC3CCC3)nc2C(F)(F)F)=NO1 [1.48],10,9,10,6,9,
CC1(C)CC([S+]([O-])C(F)(F)c2nn(CC3CCC3)nc2C(F)(F)F)=NO1 (stereo not drawn) [1.49],10,9,10,10,9,
CC1(C)CC(S(=O)(=O)C(F)(F)c2cn(C(C)(C)C)nn2)=NO1 [2.02],9,3,9,9,8,
CC1(C)CC([S+]([O-])C(F)(F)c2cn(C(C)(C)C)nn2)=NO1 (stereo not drawn) [2.04],6,0,2,0,6,
Cn1nnc(C(F)(F)F)c1C(F)(F)S(=O)(=O)C1=NOC(C)(C)C1 [3.02],10,10,10,10,,10
Cn1nnc(Br)c1C(F)(F)[S+]([O-])C1=NOC(C)(C)C1 (stereo not drawn) [3.06],10,10,9,10,9,
"Cc1nn(C)nc1C(F)S(=O)(=O)C1=NOC(C)(C)C1 (stereo not drawn) [Compound No. 1.04, 4-[(5,5-dimethyl-4,5-dihydro-isoxazole-3-sulfonyl)-fluoro-methyl]-2,5-dimethyl-2H-[1,2,3]triazole]",10,9,10,10,,9
